Experimental data reported in US7629318B2, “Immunosuppressant compounds, methods and uses related thereto” (priority 2002, dated 2009).
Where “and” joins values, the source holds several entries; their conditions need not be identical. Equal values may be shown once. Read-outs that look alike come from different tables or passages of the source. Square brackets hold non-standard residues; d marks the D form. Peptide text beside a SMILES is read from it. * marks the point of attachment. N(Me)CH2CH2Ph = CN(CCc1ccccc1)*; Tic = O=C(O)[C@@H]1Cc2ccccc2CN1; Cha = N[C@@H](CC1CCCCC1)C(=O)O; X4 = OCCOCCN(CCc1ccccc1)*; Nle = CCCC[C@H](N)C(=O)O; X2 = OCCOCCN(Cc1ccccc1)*; X6 = OCCN(CCc1ccccc1)*

Legend:
[1] = Stability of compounds in mouse blood plasma; format: in vitro ADME
Experimental: (§1) The stability of the peptidomimetic compounds was determined in rat (Charles River Laboratories, Sulzfeld), mouse (Charles River Laboratories, Sulzfeld) and human (Bayerisches Rotes Kreuz, München) blood plasma (E. R. Garrett and M. R. Gardner, J Pharmaceutical Sciences 71 (1982) 14-25).
(§2) Compound stock solutions were diluted into blood plasma to give a final compound concentration of 5 μM and the mixtures were incubated at 37° C. At 0, 6 and 24 hours 1 ml samples were drawn and the plasma proteins were precipitated by the addition of 3 ml acetonitrile p.a. and whirlmixing. The precipitate was pelleted by centrifugation at 2000 g for 5 minutes. The supernatant was evaporated off to dryness and the residue was reconstituted in 400 μl 50% acetonitrile, 0.1% TFA in water.
(§3) PBS controls were prepared for unstable compounds accordingly.

[2] = target: DR1 (DRA1*0101 DRB1*0101) (Homo sapiens, UniProt P01903+P01911, A100R/D57E/F55L/F60I/F76Y/I96L/L162R/M171V/P40L/Q125E/R42F/V115G/Y59C); assay: Competitive binding to MHC-II protein DR1; conditions: Protein binding IC50 (nM) 0101, 0101
Experimental: (§4) Interaction mixtures lacking the peptidomimetic compound and both peptide mimetic compound and MHC-II were used as positive and negative controls, respectively. All interaction mixtures were set up in duplicates and were incubated for 16 hours at room temperature.
(§5) After washing with PBS, 60 μl of the MHC-II-compound interaction mixtures were transferred from the interaction plate to the appropriate wells of the capture plate and incubated for 2 h at 4° C. The wells were washed six times with 200 μl/well of cooled (4 to 8° C.) 1×DELFIA wash (Wallac-ADL-GmbH, Freiburg), incubated with 100 μl of cooled Europium-streptavidin conjugate (Wallac-ADL-GmbH, Freiburg; diluted 1/1000 with DELFIA assay buffer) for 30 minutes at 4° C., again washed six times with cooled 1×DELFIA wash and, finally, incubated with 200 μl cooled DELFIA enhancement solution (Wallac-ADL-GmbH, Freiburg) for one hour at room temperature before reading the time-resolved europium fluorescence at λex Eu^3+: 340 nm and λem Eu^3+: 613 (615) nm (Wallac Victor^2 1420 Multilabel Counter, Wallac-ADL-GmbH, Freiburg).

[3] = target: DR4Dw4 (DRA1*0101 DRB1*0401) (Homo sapiens, UniProt P01903+P01911, A100K/A169T/F76Y/I96L/K127E/L162R/M171V/N62H/P40V/Q125Y/R42H/S133A/S149N/S66Y/V115G/V209L/W38E); assay: Competitive binding to MHC-II protein DR4Dw4
Experimental: as §4, §5

[4] = target: DR4Dw14 (DRA1*0101 DRB1*0404) (Homo sapiens, UniProt P01903+P01911, A100R/A169T/F76Y/I96L/K127E/L162R/M171V/N62H/P40V/Q125Y/R42H/S133A/S149N/S66Y/V209L/W38E); assay: Competitive binding to MHC-II protein DR4Dw14
Experimental: as §4, §5

[5] = target: Cathepsin D (EC 3.4.23.5 from bovine spleen) (Bos taurus, UniProt P80209)
Experimental: The stability of the peptidomimetic compounds towards lysosomal degradation was examined by incubation with Cathepsin B1 (EC 3.4.22.1 from bovine spleen; Sigma-Aldrich, Taufkirchen; dissolved at 10000 U/l in ddH2O) and D (EC 3.4.23.5 from bovine spleen; Sigma-Aldrich, Taufkirchen; dissolved at 10000 U/l in ddH2O) for four hours at 37° C. using a compound concentration of 50 μM and an enzyme/substrate ratio of 0.4 U/μmol. The samples contained 25 ppm 4-isopropyl benzyl alcohol (IPBA; Sigma-Aldrich, Taufkirchen) as internal standard.
Assay buffer was prepared by adding 35 μl of a 1% IPBA in DMSO solution and 28 μl of a 10000 U/l Cathepsin B1 or Cathepsin D stock solution to 14 ml of 100 mM sodium acetate, 1 mM EDTA, 1 mM DTT, pH 5.00 or 100 mM sodium acetate, pH 4.50, respectively. 8.8 μl of a 5 mM (or 4.4 μl of a 10 mM) compound stock solution (in 10% DMSO/water) were placed into a 1.5 ml Eppendorf tube. The reaction was started by adding 875 μl fully supplemented assay buffer to each tube, whirlmixing and incubation at 37° C. At 0 and 4 hours 400 μl samples were taken and the enzyme was inactivated by addition of 40 μl […] TFA aq. The samples were kept frozen at −20° C. until analysis by RP-HPLC (200 μl injection volume; Nucleosil 100-5 C18, 12.5×4.6 cm; Gradient: 20-50% acetonitrile in 30 min).
Compounds co-eluting with the internal standard during RP-HPLC analysis were tested without the standard as Example 16.

[6] = Stability of compounds in rat blood plasma; format: in vitro ADME
Experimental: as §1, §2, §3

[7] = Stability of compounds in human blood plasma; format: in vitro ADME
Experimental: as §1, §2, §3

[8] = target: Cathepsin B1 (EC 3.4.22.1 from bovine spleen) (Bos taurus, UniProt P07688); conditions: for Stability (Arbitrary units) Cath B 4 h: Cathepsin B
[9] = system: T-cell proliferation, DR14-LN; conditions: for Immunsupressive assays DR14-LN (Max) % Inhibition: maximal inhibition; for IC50: read-out: Immunsupressive assays DR14-LN (IC50)
[10] = 0404, read-out: Protein binding IC50 (nM) 0404
[11] = within 4 hours, 37° C., enzyme activity control

SMILES	IC50 [2]	IC50 [3] [µM]	Stability (Arbitrary units) Cath D 4 h [5] [Arbitrary units]	Stability (Arbitrary units) Cath B 4 h [8] [Arbitrary units]	Stability (Arbitrary units) Mouse 6 h [1] [Arbitrary units]	Stability (Arbitrary units) Mouse 24 h [1] [Arbitrary units]	IC50 [4, 10] [nM]	Stability (Arbitrary units) Rat 6 h [6] [Arbitrary units]	Stability (Arbitrary units) Rat 24 h [6] [Arbitrary units]	Stability (Arbitrary units) Human 6 h [7] [Arbitrary units]	Stability (Arbitrary units) Human 24 h [7] [Arbitrary units]	other results
CSCC[C@H](NC(=O)[C@@H]1Cc2ccccc2CN1C(=O)[C@H](CCCNC(=N)N)NC(=O)[C@H](CC1CCCCC1)NC(C)=O)C(=O)N(CCOCCO)CCc1ccccc1 [Compound P96, Ac-Cha-Arg-Tic-Met-N(CH2CH2Ph)CH2CH2OCH2CH2OH] (Ac-[Cha]R[Tic]M-X4)	1000 nM	5.9	106	91	–	–	–	–	–	–	–	Stability (Arbitrary units) Mouse 6 h ([1]; mouse plasma, 6 h): 108 Arbitrary units; Stability (Arbitrary units) Mouse 24 h ([1]; mouse plasma, 24 h): 82 Arbitrary units; IC50 ([4]; Protein binding IC50 (nM) 0404, 0404): 7400 nM; Stability (Arbitrary units) Rat 6 h ([6]; rat plasma, 6 h): 83 Arbitrary units; Stability (Arbitrary units) Rat 24 h ([6]; rat plasma, 24 h): 45 Arbitrary units; Stability (Arbitrary units) Human 6 h ([7]; human plasma, 6 h): 117 Arbitrary units; Stability (Arbitrary units) Human 24 h ([7]; human plasma, 24 h): 64 Arbitrary units
CCCC[C@H](NC(=O)[C@@H]1Cc2ccccc2CN1C(=O)[C@H](CCCNC(=N)N)NC(=O)[C@H](CC1CCCCC1)NC(C)=O)C(=O)N(C)CCc1ccccc1 [Compound P83, Ac-Cha-Arg-Tic-Nle-N(Me)CH2CH2Ph] (Ac-[Cha]R[Tic][Nle]-{N(Me)CH2CH2Ph})	1300 nM	24	98	100	93	58	11000	69	85	–	–	Immunsupressive assays DR14-LN (Max) % Inhibition [9]: 100%; IC50 [9]: 13 µM
CSCC[C@H](NC(=O)[C@@H]1Cc2ccccc2CN1C(=O)[C@H](CCCNC(=N)N)NC(=O)[C@H](CC1CCCCC1)NC(C)=O)C(=O)N(C)CCc1ccccc1 [Compound P84, Ac-Cha-Arg-Tic-Met-N(Me)CH2CH2Ph] (Ac-[Cha]R[Tic]M-{N(Me)CH2CH2Ph})	900 nM	–	101	69	111	53	14000	104	99	131	131	–
CSCC[C@H](NC(=O)[C@H](C)NC(=O)[C@H](CCCN=C(N)N)NC(=O)[C@H](CC1CCCCC1)NC(C)=O)C(=O)N[C@@H](C)C(=O)N[C@@H](CO)C(=O)N[C@@H](CC(C)C)C(N)=O [Compound P3, Ac-Cha-RAMASL-NH2, reference compound] (Ac-[Cha]RAMASL-NH2)	–	–	–	–	–	–	–	–	–	–	–	degradation by Cathepsin B1 [8, 11]: completely degraded
CSCC[C@H](NC(=O)[C@@H]1Cc2ccccc2CN1C(=O)[C@H](CCCNC(=N)N)NC(=O)[C@H](CC1CCCCC1)NC(C)=O)C(=O)N(CCO)CCc1ccccc1 [Compound P85, Ac-Cha-Arg-Tic-Met-N(CH2CH2OH)CH2CH2Ph] (Ac-[Cha]R[Tic]M-X6)	1800 nM	13	104	108	98	57	31000	111	71	–	129	–
CSCC[C@H](NC(=O)[C@@H]1Cc2ccccc2CN1C(=O)[C@H](CCCNC(=N)N)NC(=O)[C@H](CC1CCCCC1)NC(C)=O)C(=O)N(CCOCCO)Cc1ccccc1 [Compound P99, Ac-Cha-Arg-Tic-Met-N(Bn)CH2CH2OCH2CH2OH] (Ac-[Cha]R[Tic]M-X2)	690 nM and 560 nM	–	107	106	71	13	1900	80	62	104	–	Immunsupressive assays DR14-LN (Max) % Inhibition [9]: 100%; IC50 [9]: 105 µM
CCCC[C@H](NC(=O)[C@@H]1Cc2ccccc2CN1C(=O)[C@H](CCCNC(=N)N)NC(=O)[C@H](CC1CCCCC1)NC(C)=O)C(=O)N(CCO)CCc1ccccc1 [Compound P81, Ac-Cha-Arg-Tic-Nle-N(CH2CH2OH)CH2CH2Ph] (Ac-[Cha]R[Tic][Nle]-X6)	3300 nM	22	99	99	107	70	20000	88	76	104	109	–
CC[C@H](C)[C@H](NC(=O)CNC(=O)[C@@H](NC(=O)[C@H](Cc1ccccc1)NC(=O)[C@H](CC(C)C)NC(=O)[C@H](CO)NC(=O)[C@H](CC(N)=O)NC(=O)[C@H](C)NC(=O)[C@H](CCCCN)NC(=O)[C@@H](NC(=O)[C@H](Cc1ccc(O)cc1)NC(=O)[C@@H](N)CCC(N)=O)[C@@H](C)CC)[C@@H](C)CC)C(=O)N[C@H](C(=O)N[C@@H](CCC(=O)O)C(=O)N[C@@H](CC(C)C)C(=O)N[C@@H](CCCCN)C(=O)O)[C@@H](C)O [reference compound] (H-QYIKANSLFIGITELK-OH; N-terminus and C-terminus assumed)	–	–	–	–	–	–	–	–	–	–	–	degradation by Cathepsin D [5, 11]: completely degraded
